Test results published in US20020052295A1, “Diacyl derivatives of propylene diamine having herbicidal activity” (priority 1999, published 2002).

Assays:
SOLNI [1] = assay: Post-emergence herbicidal activity on SOLNI (black nightshade); format: in vivo, Solanum nigrum; details: post-emergence spray; lowest tested rate with 80% or greater inhibition; about 14 days after treatment
Text: (§1) All such uses, and the biological activity enabling such uses, are embraced by the term “herbicidal” herein. Tables 15 and 16 summarize results of tests conducted as described below to determine the pre-emergence herbicidal activity, in the form of a GR80 value, of illustrative compounds of this invention. […] Where herbicidal activity was evident but 80% inhibition was not achieved at the highest rate tested (typically 1000 g/ha), an asterisk (*) is shown in the following tables. Herbicidal activity evident in the form of symptoms of phytotoxicity, in the absence of at least 80% inhibition at any rate, is indicated in the tables by “phyto”. A blank cell in the following tables indicates no herbicidal or phytotoxic response at any rate tested.
(§2) In another set of tests, the post-emergence activity of compounds of this invention was evaluated on the cool season species listed above. The following procedure was used.
(§3) A pre-prepared topsoil mixture (described above) was placed in a pot and compacted to a depth of 1.0 to 1.25 cm from the top of the pot. Seeds of each of several monocotyledonous and dicotyledonous annual plant species were placed on top of the soil The seeds were covered with a mixture of 50% topsoil and 50% Rediearth™ in sufficient quantity to level-fill the pots. The pots were then placed on a greenhouse bench and subirrigated as needed until plants growing from the seeds had emerged and reached a suitable growth stage for post-emergence treatment, typically 9 to 14 days after planting.
(§4) A known amount of each test compound dissolved or suspended in an appropriate organic solvent was diluted with a 50:50 mix of acetone and water and applied to the plants by spraying with a standard spray nozzle in a spray volume of 3,100 l/ha at a spray pressure of […] (30 psig). Control plants were not sprayed.
(§5) After treatment the plants were placed in a greenhouse with a 30/21° C. day/night temperature regime and were subsequently watered as needed for growth. Approximately 14 days after treatment, the plants were observed and herbicidal efficacy recorded as percent inhibition by comparison with control plants.

PANDI [2] = assay: Pre-emergence herbicidal activity on PANDI (fall panicum); format: in vivo, Panicum dichotomiflorum; details: lowest tested rate giving 80% or greater inhibition, approx. 14 days after planting and treating, greenhouse
How it was run: (§6)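 Whole-plant pre-emergence assay: compound diluted into 50:50 acetone:water and applied over covered seeds in sterilized soil. Growth at 30/21 °C under mist/subirrigation; inhibition vs untreated at ~14 days, reported as GR80 over rates to typically 1000 g/ha.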

CHEAL [3] = assay: Pre-emergence herbicidal activity on CHEAL (common lambsquarters); format: in vivo, Chenopodium album; details: lowest tested rate giving 80% or greater inhibition, approx. 14 days after planting and treating, greenhouse
How it was run: as §6

CONAR [4] = assay: Post-emergence herbicidal activity on CONAR (field bindweed); format: in vivo, Convolvulus arvensis; details: post-emergence spray; lowest tested rate with 80% or greater inhibition; about 14 days after treatment
Text: as §1, §2, §3, §4, §5

CIRAR [5] = assay: Pre-emergence herbicidal activity on CIRAR (canada thistle, seedling); format: in vivo, Cirsium arvense; details: lowest tested rate giving 80% or greater inhibition, approx. 14 days after planting and treating, greenhouse
How it was run: as §6

BRAPP [6] = assay: Pre-emergence herbicidal activity on BRAPP (broadleaf signalgrass); format: in vivo, Brachiaria platyphylla; details: lowest tested rate giving 80% or greater inhibition, approx. 14 days after planting and treating, greenhouse
How it was run: as §6

DIGSA [7] = assay: Post-emergence herbicidal activity on DIGSA (large crabgrass); format: in vivo, Digitaria sanguinalis; details: post-emergence spray; lowest tested rate with 80% or greater inhibition; about 14 days after treatment
DIGSA [8] = assay: Pre-emergence herbicidal activity on DIGSA (large crabgrass); format: in vivo, Digitaria sanguinalis; details: lowest tested rate giving 80% or greater inhibition, approx. 14 days after planting and treating, greenhouse
How it was run: as §6

AMARE [9] = assay: Post-emergence herbicidal activity on AMARE (redroot pigweed); format: in vivo, Amaranthus retroflexus; details: post-emergence spray; lowest tested rate with 80% or greater inhibition; about 14 days after treatment
Text: as §1, §2, §3, §4, §5

SETFA [10] = assay: Post-emergence herbicidal activity on SETFA (giant foxtail); format: in vivo, Setaria faberi; details: post-emergence spray; lowest tested rate with 80% or greater inhibition; about 14 days after treatment
Text: as §1, §2, §3, §4, §5

CHEAL [11] = assay: Post-emergence herbicidal activity on CHEAL (common lambsquarters); format: in vivo, Chenopodium album; details: post-emergence spray; lowest tested rate with 80% or greater inhibition; about 14 days after treatment
Text: as §1, §2, §3, §4, §5

SORVU [12] = assay: Post-emergence herbicidal activity on SORVU (shattercane); format: in vivo, Sorghum vulgare; details: post-emergence spray; lowest tested rate with 80% or greater inhibition; about 14 days after treatment
Text: as §1, §2, §3, §4, §5

BRAPP [13] = assay: Post-emergence herbicidal activity on BRAPP (broadleaf signalgrass); format: in vivo, Brachiaria platyphylla; details: post-emergence spray; lowest tested rate with 80% or greater inhibition; about 14 days after treatment
Text: as §1, §2, §3, §4, §5

SOLNI [14] = assay: Pre-emergence herbicidal activity on SOLNI (black nightshade); format: in vivo, Solanum nigrum; details: lowest tested rate giving 80% or greater inhibition, approx. 14 days after planting and treating, greenhouse
How it was run: as §6

AMARE [15] = assay: Pre-emergence herbicidal activity on AMARE (redroot pigweed); format: in vivo, Amaranthus retroflexus; details: lowest tested rate giving 80% or greater inhibition, approx. 14 days after planting and treating, greenhouse
How it was run: as §6

SETFA [16] = assay: Pre-emergence herbicidal activity on SETFA (giant foxtail); format: in vivo, Setaria faberi; details: lowest tested rate giving 80% or greater inhibition, approx. 14 days after planting and treating, greenhouse
How it was run: as §6

DATST [17] = assay: Pre-emergence herbicidal activity on DATST (jimsonweed); format: in vivo, Datura stramonium; details: lowest tested rate giving 80% or greater inhibition, approx. 14 days after planting and treating, greenhouse
How it was run: as §6

ABUTH [18] = assay: Post-emergence herbicidal activity on ABUTH (velvetleaf); format: in vivo, Abutilon theophrasti; details: post-emergence spray; lowest tested rate with 80% or greater inhibition; about 14 days after treatment
Text: as §1, §2, §3, §4, §5

CIRAR [19] = assay: Post-emergence herbicidal activity on CIRAR (canada thistle, seedling); format: in vivo, Cirsium arvense; details: post-emergence spray; lowest tested rate with 80% or greater inhibition; about 14 days after treatment
Text: as §1, §2, §3, §4, §5

ECHCG [20] = assay: Post-emergence herbicidal activity on ECHCG (barnyardgrass); format: in vivo, Echinochloa crus-galli; details: post-emergence spray; lowest tested rate with 80% or greater inhibition; about 14 days after treatment
Text: as §1, §2, §3, §4, §5

POROL [21] = assay: Post-emergence herbicidal activity on POROL (common purslane; table head prints PORAL); format: in vivo, Portulaca oleracea; details: post-emergence spray; lowest tested rate with 80% or greater inhibition; about 14 days after treatment
Text: as §1, §2, §3, §4, §5

SORHA [22] = assay: Post-emergence herbicidal activity on SORHA (johnsongrass, seedling); format: in vivo, Sorghum halepense; details: post-emergence spray; lowest tested rate with 80% or greater inhibition; about 14 days after treatment
Text: as §1, §2, §3, §4, §5

PANMI [23] = assay: Post-emergence herbicidal activity on PANMI (wild proso millet); format: in vivo, Panicum miliaceum; details: post-emergence spray; lowest tested rate with 80% or greater inhibition; about 14 days after treatment
POROL [24] = assay: Pre-emergence herbicidal activity on POROL (common purslane); format: in vivo, Portulaca oleracea; details: lowest tested rate giving 80% or greater inhibition, approx. 14 days after planting and treating, greenhouse
How it was run: as §6

DATST [25] = assay: Post-emergence herbicidal activity on DATST (jimsonweed); format: in vivo, Datura stramonium; details: post-emergence spray; lowest tested rate with 80% or greater inhibition; about 14 days after treatment
Text: as §1, §2, §3, §4, §5

PANDI [26] = assay: Post-emergence herbicidal activity on PANDI (fall panicum); format: in vivo, Panicum dichotomiflorum; details: post-emergence spray; lowest tested rate with 80% or greater inhibition; about 14 days after treatment
Text: as §1, §2, §3, §4, §5

PANMI [27] = assay: Pre-emergence herbicidal activity on PANMI (wild proso millet); format: in vivo, Panicum miliaceum; details: lowest tested rate giving 80% or greater inhibition, approx. 14 days after planting and treating, greenhouse
How it was run: as §6

ABUTH [28] = assay: Pre-emergence herbicidal activity on ABUTH (velvetleaf); format: in vivo, Abutilon theophrasti; details: lowest tested rate giving 80% or greater inhibition, approx. 14 days after planting and treating, greenhouse
How it was run: as §6

SORHA [29] = assay: Pre-emergence herbicidal activity on SORHA (johnsongrass, seedling); format: in vivo, Sorghum halepense; details: lowest tested rate giving 80% or greater inhibition, approx. 14 days after planting and treating, greenhouse
How it was run: as §6

ECHCG [30] = assay: Pre-emergence herbicidal activity on ECHCG (barnyardgrass); format: in vivo, Echinochloa crus-galli; details: lowest tested rate giving 80% or greater inhibition, approx. 14 days after planting and treating, greenhouse
How it was run: as §6

CONAR [31] = assay: Pre-emergence herbicidal activity on CONAR (field bindweed); format: in vivo, Convolvulus arvensis; details: lowest tested rate giving 80% or greater inhibition, approx. 14 days after planting and treating, greenhouse
How it was run: as §6

SORVU [32] = assay: Pre-emergence herbicidal activity on SORVU (shattercane); format: in vivo, Sorghum vulgare; details: lowest tested rate giving 80% or greater inhibition, approx. 14 days after planting and treating, greenhouse
How it was run: as §6

Row | Structure (SMILES) | Post-emergence activity (GR80) SOLNI (SOLNI [1]) | Pre-emergence activity (GR80) on PANDI (PANDI [2]) | Pre-emergence activity (GR80) on CHEAL (CHEAL [3]) | Post-emergence activity (GR80) CONAR (CONAR [4]) | Pre-emergence activity (GR80) on CIRAR (CIRAR [5]) | Pre-emergence activity (GR80) on BRAPP (BRAPP [6]) | Pre-emergence activity (GR80) on DIGSA (DIGSA [8]) [g/ha] | Post-emergence activity (GR80) AMARE (AMARE [9]) | Post-emergence activity (GR80) CHEAL (CHEAL [11]) | Pre-emergence activity (GR80) on SOLNI (SOLNI [14]) | Pre-emergence activity (GR80) on AMARE (AMARE [15]) [g/ha] | Pre-emergence activity (GR80) on SETFA (SETFA [16]) | Pre-emergence activity (GR80) on DATST (DATST [17]) | Post-emergence activity (GR80) ABUTH (ABUTH [18]) | Post-emergence activity (GR80) CIRAR (CIRAR [19]) | Post-emergence activity (GR80) PORAL (POROL [21]) | Pre-emergence activity (GR80) on PORAL (POROL [24]) | Post-emergence activity (GR80) DATST (DATST [25]) | further results
1 | C[C@H](CNC(=O)c1cccc(C(F)(F)F)c1)NC(=O)Oc1ccc(Cl)cc1 [Example 231] | [empty] | phyto | phyto | phyto | phyto | phyto | 1000 | phyto | phyto | phyto | 750 | phyto | phyto | [empty] | [empty] | phyto | phyto | * (Where herbicidal activity was evident but 80% inhibition was not achieved at the highest rate tested (typically 1000 g/ha), an asterisk (*) is shown) | Post-emergence activity (GR80) DIGSA (DIGSA [7]): phyto; Post-emergence activity (GR80) SETFA (SETFA [10]): [empty]; Post-emergence activity (GR80) SORVU (SORVU [12]): phyto; Post-emergence activity (GR80) BRAPP (BRAPP [13]): [empty]; Post-emergence activity (GR80) ECHCG (ECHCG [20]): [empty]; Post-emergence activity (GR80) SORHA (SORHA [22]): phyto; Post-emergence activity (GR80) PANMI (PANMI [23]): [empty]; Post-emergence activity (GR80) PANDI (PANDI [26]): phyto
2 | CC(CNC(=O)c1cccc(C(F)(F)F)c1)NC(=O)c1cccc(F)c1F (centres unmarked) [Example 34] | phyto | 125 g/ha | 125 g/ha | * (Where herbicidal activity was evident but 80% inhibition was not achieved at the highest rate tested (typically 1000 g/ha), an asterisk (*) is shown) | 125 g/ha | 250 g/ha | 125 | 750 g/ha | * (Where herbicidal activity was evident but 80% inhibition was not achieved at the highest rate tested (typically 1000 g/ha), an asterisk (*) is shown) | 250 g/ha | 125 | 250 g/ha | 250 g/ha | phyto | 1000 g/ha | 250 g/ha | 125 g/ha | 750 g/ha | Pre-emergence activity (GR80) on PANMI (PANMI [27]): 250 g/ha; Pre-emergence activity (GR80) on ABUTH (ABUTH [28]): 500 g/ha; Pre-emergence activity (GR80) on SORHA (SORHA [29]): 750 g/ha; Pre-emergence activity (GR80) on ECHCG (ECHCG [30]): 1000 g/ha; Pre-emergence activity (GR80) on CONAR (CONAR [31]): 750 g/ha; Pre-emergence activity (GR80) on SORVU (SORVU [32]): phyto
